Reference: ChEMBL document CHEMBL4819085, “Dipyridyl-substituted thiosemicarbazone as a potent broad-spectrum inhibitor of metallo-β-lactamases” (Bioorg Med Chem, 2021)
Converted amounts (≈) assume the structure as drawn. The source made the active and inactive calls. The calls are words filed in the database; no cut-off is given here.

Experiments:
Escherichia coli [1] = test: Synergistic antibacterial activity against Escherichia coli at 16 ug/ml in presence of meropenem; format: functional, organism-based; details: dose 16.0 µg/ml
[2] = molecular target: Metallo-beta-lactamase (Escherichia coli) (UniProt Q5U7L7); test: Inhibition of Escherichia coli VIM-2 assessed as potentiation of meropenem-induced antibacterial activity by measuring meropenem MIC incubated for 24 hrs by broth microdilution method
Escherichia coli [3] = test: Potentiation of meropenem-induced antibacterial activity against Escherichia coli 04 assessed as meropenem MIC incubated for 24 hrs by broth microdilution method; format: functional
[4] = molecular target: Metallo-beta-lactamase type 2 (Klebsiella pneumoniae, UniProt C7C422); test: Inhibition of NDM-1 in Klebsiella pneumoniae using meropenem as substrate incubated for 0.5 hrs
Escherichia coli [5] = test: Inhibition of Escherichia coli L1 assessed as potentiation of meropenem-induced antibacterial activity by measuring meropenem MIC incubated for 24 hrs by broth microdilution method
Escherichia coli [6] = test: Antibacterial activity against Escherichia coli producing ImiS assessed as fractional inhibitory concentration index incubated for 24 hrs in presence of meropenem by checkerboard assay; format: functional
Escherichia coli [7] = test: Inhibition of Escherichia coli NDM-1 assessed as synergistic antibacterial activity at 4 ug/ml in presence of meropenem; details: dose 4.0 µg/ml
[8] = Competitive inhibition of bacterial NDM-1 expressed in Escherichia coli BL21 (DE3) using meropenem as substrate incubated for 1 hr by Lineweaver-Burk plot analysis; parameters: species or system Bacteria
Klebsiella pneumoniae [9] = test: In vivo antibacterial activity against Klebsiella pneumoniae producing NDM-1 infected in mouse assessed as reduction in bacterial load in liver at 2 mg/kg, ip in presence of meropenem; format: functional, organism-based
Enterococcus faecium = test: Antibacterial activity against vancomycin-resistant Enterococcus faecium assessed as reduction in bacterial growth incubated for 24 hrs by broth microdilution method; format: functional
Klebsiella pneumoniae [10] = test: In vivo antibacterial activity against Klebsiella pneumoniae producing NDM-1 infected in mouse assessed as reduction in bacterial load in liver at 2 mg/kg, ip; format: functional, organism-based
Escherichia coli [11] = test: Potentiation of meropenem-induced antibacterial activity against Escherichia coli 24 assessed as meropenem MIC incubated for 24 hrs by broth microdilution method; format: functional
[12] = (§1) Inhibition of bacterial ImiS expressed in Escherichia coli BL21 (DE3) using meropenem as substrate incubated for 1 hr by spectrometry analysis; parameters: species or system Bacteria
Bacteria [13] = test: as §1
Escherichia coli [14] = test: Inhibition of Escherichia coli ImiS assessed as potentiation of meropenem-induced antibacterial activity by measuring fold reduction in meropenem MIC up to 8 ug/ml incubated for 24 hrs by broth microdilution method relative to meropenem alone; details: dose microg/ml <=8, time 24.0 hrs
Escherichia coli [15] = test: Inhibition of Escherichia coli IMP-1 assessed as potentiation of meropenem-induced antibacterial activity by measuring meropenem MIC incubated for 24 hrs by broth microdilution method
Escherichia coli [16] = test: Antibacterial activity against Escherichia coli producing NDM-1 assessed as fractional inhibitory concentration index incubated for 24 hrs in presence of meropenem by checkerboard assay; format: functional
Escherichia coli [17] = test: Bactericidal activity against Escherichia coli producing NDM-1 assessed as reduction in bacterial viability at 4 ug/ml in presence of meropenem incubated for 12 hrs by time kill assay; format: functional, organism-based; details: dose 4.0 µg/ml
Escherichia coli [18] = test: Potentiation of meropenem-induced antibacterial activity against Escherichia coli 08 assessed as meropenem MIC incubated for 24 hrs by broth microdilution method; format: functional
Escherichia coli [19] = test: Inhibition of Escherichia coli ImiS assessed as potentiation of meropenem-induced antibacterial activity by measuring meropenem MIC incubated for 24 hrs by broth microdilution method
Bacteria [20] = test: Inhibition of bacterial L1 at 20 uM using meropenem as substrate incubated for 1 hr by spectrometry analysis relative to control
[21] = (§2) Inhibition of bacterial IMP-1 using meropenem as substrate incubated for 1 hr by spectrometry analysis; parameters: species or system Bacteria
Bacteria [22] = test: as §2
[23] = (§3) Inhibition of bacterial VIM-2 expressed in Escherichia coli BL21 (DE3) using meropenem as substrate incubated for 1 hr by spectrometry analysis; parameters: species or system Bacteria
Bacteria [24] = test: as §3
Klebsiella pneumoniae [25] = test: In vivo antibacterial activity against Klebsiella pneumoniae producing NDM-1 infected in mouse assessed as reduction in bacterial load in spleen at 2 mg/kg, ip; format: functional, organism-based
Bacteria [26] = test: Reversible inhibition of bacterial NDM-1 assessed as residual activity at 50 uM incubated for 6 hrs by dialysis method relative to control
Pseudomonas aeruginosa = test: Antibacterial activity against Carbapenem-resistant Pseudomonas aeruginosa assessed as reduction in bacterial growth incubated for 24 hrs by broth microdilution method; format: functional
Staphylococcus aureus = test: Antibacterial activity against methicillin-resistant Staphylococcus aureus assessed as reduction in bacterial growth incubated for 24 hrs by broth microdilution method; format: functional
Bacteria [27] = test: Inhibition of bacterial VIM-2 expressed in Escherichia coli BL21 (DE3) at 20 uM using meropenem as substrate incubated for 1 hr by spectrometry analysis relative to control
Escherichia coli [28] = test: Potentiation of meropenem-induced antibacterial activity against Escherichia coli 24 assessed as fold reduction in meropenem MIC incubated for 24 hrs by broth microdilution method relative to meropenem alone; format: functional
Klebsiella pneumoniae [29] = test: In vivo antibacterial activity against Klebsiella pneumoniae producing NDM-1 infected in mouse assessed as reduction in bacterial load in spleen at 2 mg/kg, ip in presence of meropenem; format: functional, organism-based
Klebsiella pneumoniae [30] = test: Potentiation of meropenem-induced antibacterial activity against Klebsiella pneumoniae assessed as fold reduction in meropenem MIC incubated for 24 hrs by broth microdilution method relative to meropenem alone; format: functional
Bacteria [31] = test: Inhibition of bacterial IMP-1 at 20 uM using meropenem as substrate incubated for 1 hr by spectrometry analysis relative to control
Escherichia coli [32] = test: Inhibition of Escherichia coli NDM-1 assessed as bacterial growth rate in presence of ZnCl2 relative to control; parameters: scale not given: the % may be the effect or the level left
Bacteria [33] = test: Inhibition of bacterial ImiS expressed in Escherichia coli BL21 (DE3) at 20 uM using meropenem as substrate incubated for 1 hr by spectrometry analysis relative to control
Escherichia coli [34] = test: Antibacterial activity against Escherichia coli 01 assessed as reduction in bacterial growth incubated for 24 hrs by broth microdilution method; format: functional
Escherichia coli [35] = test: Potentiation of meropenem-induced antibacterial activity against Escherichia coli 01 assessed as meropenem MIC incubated for 24 hrs by broth microdilution method; format: functional
Escherichia coli [36] = test: Antibacterial activity against Escherichia coli producing VIM-2 assessed as fractional inhibitory concentration index incubated for 24 hrs in presence of meropenem by checkerboard assay; format: functional
Escherichia coli [37] = test: Antibacterial activity against Escherichia coli 08 assessed as reduction in bacterial growth incubated for 24 hrs by broth microdilution method; format: functional
[38] = Binding affinity to Zn2+ ion assessed as UV absorption peak at 435 nm at 50 uM incubated for 5 mins in presence of ZnCl2 by spectrometry analysis
Escherichia coli [39] = test: Antibacterial activity against Escherichia coli 06 assessed as reduction in bacterial growth incubated for 24 hrs by broth microdilution method; format: functional
Escherichia coli [40] = test: Inhibition of Escherichia coli NDM-1 assessed as potentiation of meropenem-induced antibacterial activity by measuring fold reduction in meropenem MIC up to 8 ug/ml incubated for 24 hrs by broth microdilution method relative to meropenem alone; details: dose microg/ml <=8, time 24.0 hrs

Metallo-beta-lactamase type 2, sequence (C7C422 whole entry): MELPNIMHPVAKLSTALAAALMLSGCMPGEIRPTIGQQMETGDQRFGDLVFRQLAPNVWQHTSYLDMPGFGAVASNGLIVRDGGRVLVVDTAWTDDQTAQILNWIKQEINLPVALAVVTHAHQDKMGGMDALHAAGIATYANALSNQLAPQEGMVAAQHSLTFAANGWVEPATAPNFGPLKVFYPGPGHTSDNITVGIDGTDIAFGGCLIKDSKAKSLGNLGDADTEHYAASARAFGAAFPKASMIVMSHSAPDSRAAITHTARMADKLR

## CN(C(=S)NN=C(c1ccccn1)c1ccccn1)C1CCCCC1
Escherichia coli [1]
  Activity: Active
[2]
  MIC: 8 µg/mL
Escherichia coli [3]
  MIC: 16 µg/mL
[4]
  IC50: 13600 nM
Escherichia coli [5]
  MIC: 32 µg/mL
Escherichia coli [6]
  FIC: 0.313
Escherichia coli [7]
  inhibition: Active
[8]
  Ki: 10.2 nM
Klebsiella pneumoniae [9]
  inhibition: Active
Enterococcus faecium
  MIC: 16 µg/mL (≈ 45.3 µM)
Klebsiella pneumoniae [10]
  inhibition: inactive
Escherichia coli [11]
  MIC: 16 µg/mL
[12]
  IC50: 75 nM
Bacteria [13]
  inhibition: Dose-Dependent Effect
Escherichia coli [14]
  fold change (FC): 64
Escherichia coli [15]
  MIC: 16 µg/mL
Escherichia coli [16]
  FIC: 0.313
Escherichia coli [17]
  inhibition: Active
Escherichia coli [18]
  MIC: 32 µg/mL
Escherichia coli [19]
  MIC: 4 µg/mL
Bacteria [20]
  inhibition: > 90%
[21]
  IC50: 280 nM
Bacteria [22]
  inhibition: Dose-Dependent Effect
[23]
  IC50: 110 nM
Bacteria [24]
  inhibition: Dose-Dependent Effect
Klebsiella pneumoniae [25]
  inhibition: inactive
Bacteria [26]
  Activity: 70%
Pseudomonas aeruginosa
  MIC: 16 µg/mL (≈ 45.3 µM)
Staphylococcus aureus
  MIC: 32 µg/mL (≈ 90.5 µM)
Bacteria [27]
  inhibition: > 90%
Escherichia coli [28]
  fold change (FC): 2
Klebsiella pneumoniae [29]
  inhibition: Active
Klebsiella pneumoniae [30]
  fold change (FC): 8
Bacteria [31]
  inhibition: > 90%
Escherichia coli [32]
  Activity: 90%
Bacteria [33]
  inhibition: > 90%
Escherichia coli [34]
  MIC: 16 µg/mL (≈ 45.3 µM)
Escherichia coli [35]
  MIC: 32 µg/mL
Escherichia coli [36]
  FIC: 0.313
Escherichia coli [37]
  MIC: 16 µg/mL (≈ 45.3 µM)
[38]
  Activity: Active
Escherichia coli [39]
  MIC: 16 µg/mL (≈ 45.3 µM)
Escherichia coli [40]
  fold change (FC): 256
